Data from publication PMC10574185, “Encapsulation and Biological Activity of Hesperetin Derivatives with HP-β-CD” (Molecules, 2023).
Converted amounts (≈) assume the structure as drawn. One block for each compound: values may come before it.

Assays:
[1] = DPPH assay (antioxidant activity); conditions: concentration 0.1 mg/mL, mean ± SD
Procedure: To evaluate the antioxidant ability of the tested systems, antioxidant analysis was performed. Antioxidants can scavenge hydroxyl radicals in two ways: by reacting directly with hydroxyl radicals (DPPH^•, ABTS^•+) or indirectly inhibiting the formation of hydroxyl radicals by chelating metal ions involved in the production of hydroxyl radicals. The antioxidant activity of the systems studied was investigated by using DPPH^• scavenging, ABTS^•+ scavenging ability, and Fe^2+-chelating ability. In this study, the antioxidant activity of pure hesperetin and its Schiff bases (HHSB, HIN, and HTSC) and HP-β-CD complexes were compared, and the positive control was Trolox.
The detailed methodology of DPPH assay was described in the previous paper by Sykuła et al..

[2] = test system: Escherichia coli ATCC 35218; assay: Minimal inhibition concentration (dilution + diffusion-well); format: cell-based; conditions: ATCC35218, 37 °C, 18 h
Procedure: (§1) The MIC was performed for compounds and strains sensitive to their action in the antagonistic test. Minimum inhibitory concentration was determined by combining the dilution method with the diffusion-well method. Test compounds at a concentration of 500 μM were prepared in 5% (w/w) DMSO. Surface layer of microorganisms, against which antagonistic activity was noted, were prepared in the same way as for the antagonistic test. Then, two-fold sequential dilutions of the test compounds in the range of 500 µM to 62.5 µM were prepared. Wells with a diameter of 8 mm cut in the Mueller–Hinton Agar (Merck, Darmstadt, Germany) with the test strain were added with 50 µL of the prepared dilutions, which corresponded to the following concentrations of the tested compounds: […], 1.25 mM, 0.625 mM, and […]. Petri dishes prepared in this way were incubated at 37 °C for 18 h. After a given time, the MIC value was read. The MIC concentration expressed in µM was the first concentration of the tested compounds at which growth inhibition of the test strain was observed.

[3] = pH 6.5; cited from earlier work
[4] = test system: Bacillus cereus; set-up: method as in PMID 36009336; conditions: cited from earlier work
[5] = test system: prostate cancer cells; conditions: cited from earlier work
[6] = test system: Staphylococcus aureus; set-up: method as in PMID 36009336; conditions: cited from earlier work
[7] = test system: Escherichia coli ATCC 11303; assay: Minimal inhibition concentration (dilution + diffusion-well); format: cell-based; conditions: ATCC11303, 37 °C, 18 h
Procedure: as §1

[8] = test system: Escherichia coli; set-up: method as in PMID 36009336; conditions: cited from earlier work
[9] = test system: Pseudomonas aeruginosa; set-up: method as in PMID 36009336; conditions: cited from earlier work
[10] = test system: Staphylococcus aureus ATCC 29737; assay: Minimal inhibition concentration (dilution + diffusion-well); format: cell-based; conditions: ATCC29737, 37 °C, 18 h
Procedure: as §1

- MIC [2]: 2.5 µM
Compound: COc1ccc(C2C/C(=N\NC(=O)c3ccccc3)c3c(O)cc(O)cc3O2)cc1O (racemic) [HHSB]
- DPPH antioxidant activity [1]: 44.29 ± 4.5%

- MIC [7]: 2.5 µM
Compound: COc1ccc(C2CC(=O)c3c(O)cc(O)cc3O2)cc1O (stereo not drawn) [Hesperetin, 3′,5,7-Trihydroxy-4′-methoxyflavanone]
- increase of hesperetin solubility with HP-β-CD [3]: 164 times
- MIC [4]: 250 µg/mL (≈ 827 µM)
- decrease in the cytotoxicity of cabazitaxel [5]: 13.1 fold
- decrease in the cytotoxicity of docetaxel [5]: 9.8 fold
- MIC [6]: 125 µg/mL (≈ 414 µM)
- DPPH antioxidant activity [1]: 38.08 ± 2.7%
- MIC [8]: 500 µg/mL (≈ 1650 µM)
- MIC [9]: 500 µg/mL (≈ 1650 µM)

- MIC [7]: 2.5 µM
Compound: COc1ccc(C2C/C(=N\NC(=O)c3ccncc3)c3c(O)cc(O)cc3O2)cc1O (racemic) [HIN]
- DPPH antioxidant activity [1]: 34.62 ± 3.8%

- MIC [10]: 2.5 µM
Compound: COc1ccc(C2CC(=NNC(N)=S)c3c(O)cc(O)cc3O2)cc1O (stereo not drawn) [HTSC, N-[2,3-dihydro-5,7-dihydroxy-2-(3-hydroxy-4-methoxyphenyl)chromen-4-ylidene]thiosemicarbazide]
- DPPH antioxidant activity [1]: 93.72 ± 6.8%
